# Source: ChEMBL document CHEMBL3132845, “Design and discovery of 4-anilinoquinazoline ureas as multikinase inhibitors targeting BRAF, VEGFR-2 and EGFR” (Medchemcomm, 2013)
# Key:
# [1] = target: T1, Vascular endothelial growth factor receptor 2 (Homo sapiens, UniProt P35968); assay: Inhibition of VEGFR2 (unknown origin) after 1 hr by Caliper mobility shift assay
# [2] = target: T2, Serine/threonine-protein kinase B-raf (Homo sapiens, UniProt P15056); assay: Inhibition of BRAF (unknown origin) after 1 hr by LanthaScreen assay
# [3] = target: Serine/threonine-protein kinase B-raf (Homo sapiens, UniProt P15056, V600E); assay: Inhibition of BRAF V600E mutant (unknown origin) after 1 hr by LanthaScreen assay
# [4] = target: Epidermal growth factor receptor (Homo sapiens, UniProt P00533); assay: Inhibition of EGFR (unknown origin) after 1 hr by Caliper mobility shift assay
# [5] = target: T2, Serine/threonine-protein kinase B-raf; assay: Ratio of sorafenib IC50 to compound IC50 for BRAF (unknown origin) after 1 hr by LanthaScreen assay
# [6] = target: T1, Vascular endothelial growth factor receptor 2; assay: Ratio of sorafenib IC50 to compound IC50 for VEGFR2 (unknown origin) after 1 hr by Caliper mobility shift assay
# Chain of Serine/threonine-protein kinase B-raf (Homo sapiens, UniProt P15056, V600E) (P15056 2-766 V600E limits assumed): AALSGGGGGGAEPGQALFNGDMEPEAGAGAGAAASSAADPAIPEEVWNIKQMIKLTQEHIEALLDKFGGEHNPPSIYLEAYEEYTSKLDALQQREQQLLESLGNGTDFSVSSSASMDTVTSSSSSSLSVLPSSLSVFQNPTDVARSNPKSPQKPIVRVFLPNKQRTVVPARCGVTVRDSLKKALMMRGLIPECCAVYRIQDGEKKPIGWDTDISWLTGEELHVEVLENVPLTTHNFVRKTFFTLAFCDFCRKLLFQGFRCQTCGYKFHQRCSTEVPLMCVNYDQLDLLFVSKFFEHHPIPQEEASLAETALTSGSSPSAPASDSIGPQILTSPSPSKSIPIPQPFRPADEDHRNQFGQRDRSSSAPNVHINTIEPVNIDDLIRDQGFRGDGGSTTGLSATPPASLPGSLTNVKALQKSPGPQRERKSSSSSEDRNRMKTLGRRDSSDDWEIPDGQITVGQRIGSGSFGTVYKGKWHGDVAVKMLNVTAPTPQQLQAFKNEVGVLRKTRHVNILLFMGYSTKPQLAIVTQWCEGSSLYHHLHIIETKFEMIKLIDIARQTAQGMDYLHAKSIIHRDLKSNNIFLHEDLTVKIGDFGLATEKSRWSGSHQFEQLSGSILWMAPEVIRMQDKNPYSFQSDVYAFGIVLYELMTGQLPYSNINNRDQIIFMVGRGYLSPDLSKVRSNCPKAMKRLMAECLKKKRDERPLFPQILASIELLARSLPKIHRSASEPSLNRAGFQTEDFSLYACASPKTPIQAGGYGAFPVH
# Chain of Epidermal growth factor receptor (P00533 whole entry): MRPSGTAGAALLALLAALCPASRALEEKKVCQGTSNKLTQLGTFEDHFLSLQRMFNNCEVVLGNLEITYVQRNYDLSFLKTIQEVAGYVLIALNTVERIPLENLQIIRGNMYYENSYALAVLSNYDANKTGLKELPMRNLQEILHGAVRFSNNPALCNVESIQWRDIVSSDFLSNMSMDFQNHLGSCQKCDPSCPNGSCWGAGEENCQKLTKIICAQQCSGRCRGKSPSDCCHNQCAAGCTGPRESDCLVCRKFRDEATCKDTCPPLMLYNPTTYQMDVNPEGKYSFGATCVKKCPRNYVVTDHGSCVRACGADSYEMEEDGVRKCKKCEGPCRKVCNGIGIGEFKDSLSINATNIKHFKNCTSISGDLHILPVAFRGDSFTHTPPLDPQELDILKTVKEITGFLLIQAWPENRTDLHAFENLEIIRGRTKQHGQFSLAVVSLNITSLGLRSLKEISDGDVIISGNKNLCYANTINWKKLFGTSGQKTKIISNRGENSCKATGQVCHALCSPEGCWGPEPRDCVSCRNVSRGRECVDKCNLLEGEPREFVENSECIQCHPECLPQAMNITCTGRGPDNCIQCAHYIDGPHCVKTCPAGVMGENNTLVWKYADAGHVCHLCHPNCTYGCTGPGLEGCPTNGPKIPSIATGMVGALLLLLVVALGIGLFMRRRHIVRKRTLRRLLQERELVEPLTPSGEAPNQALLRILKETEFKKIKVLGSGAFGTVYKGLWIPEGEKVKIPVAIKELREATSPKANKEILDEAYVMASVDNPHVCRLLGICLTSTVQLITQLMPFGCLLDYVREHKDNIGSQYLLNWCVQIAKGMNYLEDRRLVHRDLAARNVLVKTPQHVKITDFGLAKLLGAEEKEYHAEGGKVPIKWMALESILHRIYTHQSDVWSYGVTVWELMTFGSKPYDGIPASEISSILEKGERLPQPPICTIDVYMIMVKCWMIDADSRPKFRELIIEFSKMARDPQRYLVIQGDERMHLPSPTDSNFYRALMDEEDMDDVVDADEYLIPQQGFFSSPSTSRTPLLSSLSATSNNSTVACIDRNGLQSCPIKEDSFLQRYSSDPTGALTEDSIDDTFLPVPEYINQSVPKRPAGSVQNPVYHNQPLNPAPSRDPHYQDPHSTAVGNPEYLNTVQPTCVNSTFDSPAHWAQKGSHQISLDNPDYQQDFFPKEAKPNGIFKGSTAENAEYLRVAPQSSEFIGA
# T1 sequence (P35968 whole entry): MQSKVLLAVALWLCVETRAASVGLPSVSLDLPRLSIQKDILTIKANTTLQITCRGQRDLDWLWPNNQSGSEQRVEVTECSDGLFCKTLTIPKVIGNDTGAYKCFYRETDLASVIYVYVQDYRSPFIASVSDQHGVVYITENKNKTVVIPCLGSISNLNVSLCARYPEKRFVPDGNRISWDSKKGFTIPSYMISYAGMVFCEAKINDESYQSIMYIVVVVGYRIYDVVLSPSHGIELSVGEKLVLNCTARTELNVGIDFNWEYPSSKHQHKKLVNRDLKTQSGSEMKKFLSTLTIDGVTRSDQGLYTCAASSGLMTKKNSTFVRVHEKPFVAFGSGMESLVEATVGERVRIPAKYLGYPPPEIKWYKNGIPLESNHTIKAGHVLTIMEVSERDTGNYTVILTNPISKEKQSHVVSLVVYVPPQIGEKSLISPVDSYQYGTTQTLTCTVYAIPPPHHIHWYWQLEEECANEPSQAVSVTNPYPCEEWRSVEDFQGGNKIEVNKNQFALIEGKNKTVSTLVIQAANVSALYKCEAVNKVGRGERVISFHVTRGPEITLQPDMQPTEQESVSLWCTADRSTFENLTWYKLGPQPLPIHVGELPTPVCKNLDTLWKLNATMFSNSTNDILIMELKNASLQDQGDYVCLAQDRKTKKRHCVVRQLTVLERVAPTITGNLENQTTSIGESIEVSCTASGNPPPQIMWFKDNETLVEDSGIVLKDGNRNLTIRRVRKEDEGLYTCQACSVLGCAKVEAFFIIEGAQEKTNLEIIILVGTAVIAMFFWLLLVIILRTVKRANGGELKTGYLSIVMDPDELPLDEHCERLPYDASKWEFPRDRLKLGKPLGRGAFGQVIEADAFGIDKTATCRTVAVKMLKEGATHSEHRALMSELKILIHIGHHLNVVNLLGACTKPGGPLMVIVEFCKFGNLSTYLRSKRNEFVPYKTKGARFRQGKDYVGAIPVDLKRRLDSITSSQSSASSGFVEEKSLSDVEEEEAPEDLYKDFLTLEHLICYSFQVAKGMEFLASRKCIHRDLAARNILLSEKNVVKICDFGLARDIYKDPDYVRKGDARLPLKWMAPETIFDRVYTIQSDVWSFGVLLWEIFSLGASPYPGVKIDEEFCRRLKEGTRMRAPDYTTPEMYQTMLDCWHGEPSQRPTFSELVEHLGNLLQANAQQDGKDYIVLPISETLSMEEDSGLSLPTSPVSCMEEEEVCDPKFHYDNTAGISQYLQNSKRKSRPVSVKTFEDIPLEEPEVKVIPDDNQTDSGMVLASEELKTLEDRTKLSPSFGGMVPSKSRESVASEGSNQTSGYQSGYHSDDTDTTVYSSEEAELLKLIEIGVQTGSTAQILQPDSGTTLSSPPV
# T2 sequence (P15056 whole entry): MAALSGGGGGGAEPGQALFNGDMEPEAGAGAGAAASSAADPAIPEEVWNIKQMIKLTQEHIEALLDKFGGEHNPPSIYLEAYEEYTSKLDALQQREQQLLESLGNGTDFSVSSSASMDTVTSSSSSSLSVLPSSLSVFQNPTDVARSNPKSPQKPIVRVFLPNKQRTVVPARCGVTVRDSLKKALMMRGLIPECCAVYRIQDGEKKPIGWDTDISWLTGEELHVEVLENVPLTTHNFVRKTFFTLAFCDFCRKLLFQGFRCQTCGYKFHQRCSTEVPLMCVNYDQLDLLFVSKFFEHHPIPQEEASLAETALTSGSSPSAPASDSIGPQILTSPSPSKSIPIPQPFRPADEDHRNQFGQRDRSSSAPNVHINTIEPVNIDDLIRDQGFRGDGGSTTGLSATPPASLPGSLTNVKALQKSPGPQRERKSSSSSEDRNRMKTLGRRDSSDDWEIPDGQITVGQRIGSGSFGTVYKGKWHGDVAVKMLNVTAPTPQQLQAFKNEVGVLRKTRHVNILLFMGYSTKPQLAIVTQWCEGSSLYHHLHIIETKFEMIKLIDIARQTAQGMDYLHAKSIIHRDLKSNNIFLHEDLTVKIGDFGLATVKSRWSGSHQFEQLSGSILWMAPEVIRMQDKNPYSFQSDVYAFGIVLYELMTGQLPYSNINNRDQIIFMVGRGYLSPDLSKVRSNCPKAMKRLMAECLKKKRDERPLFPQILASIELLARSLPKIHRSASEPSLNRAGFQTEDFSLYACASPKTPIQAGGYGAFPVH
Compound,IC50 [1] [nM],IC50 [2] [nM],IC50 [3] [nM],IC50 [4] [nM],Ratio IC50 [5],Ratio IC50 [6]
COc1cc2ncnc(Nc3cccc(NC(=O)Nc4cccc(C)c4)c3)c2cc1OCCCN1CCOCC1,8570,119,54,2350,,
O=C(Nc1cccc(Nc2ncnc3cc(OCCCN4CCOCC4)ccc23)c1)Nc1ccc(F)c(Cl)c1,2170,72,42,3320,,
COc1cc2ncnc(Nc3cccc(NC(=O)Nc4ccc(F)c(Cl)c4)c3)c2cc1OCCCN1CCOCC1,> 10000,31,55,> 10000,4,
COc1cc2ncnc(Nc3cccc(NC(=O)Nc4ccc(Cl)c(C(F)(F)F)c4)c3)c2cc1OCCCN1CCOCC1,213,195,75,82,,
CCN(CCO)CCCOc1ccc2c(Nc3cccc(NC(=O)Nc4ccc(F)c(Cl)c4)c3)ncnc2c1,95,22,13,165,5,

# Molecules with a lower IC50 [1], results first:
IC50 [1] [nM],IC50 [2] [nM],IC50 [3] [nM],IC50 [4] [nM],Ratio IC50 [5],Ratio IC50 [6],Compound
91,112,53,188,,,CCN(CCO)CCCOc1ccc2c(Nc3cccc(NC(=O)Nc4ccc(Cl)c(C(F)(F)F)c4)c3)ncnc2c1
17,539,371,285,,3,COc1cc2ncnc(Nc3ccc(NC(=O)Nc4ccc(Cl)c(C(F)(F)F)c4)cc3)c2cc1OCCCN1CCOCC1
75,101,58,99,,,O=C(Nc1cccc(Nc2ncnc3cc(OCCCN4CCN(CCO)CC4)ccc23)c1)Nc1ccc(Cl)c(C(F)(F)F)c1
